Legend:
[1] = target: T1, HCV polymerase (Hepatitis C virus genotype 1b, UniProt Q9WMX2); assay: Polymerase assay of Biological Example 1 (IC50 values of Table 3); format: biochemical; conditions: IC50 values of Table 3, polymerase assay of Biological Example 1; read-out: NS5B-enzyme3
T1 construct: (His)6 (C); made in house; host or cells: XL-1 cells (E. coli, by own knowledge)
Excerpt: A number of assays have been published to assess these activities. A general method that assesses the gross increase of HCV virus in culture was disclosed in U.S. Pat. No. 5,738,985 to Miles et al. In vitro assays have been reported in Ferrari et al. Jnl. of Vir., 73:1649-1654, 1999; Ishii et al., Hepatology, 29:1227-1235, 1999; Lohmann et al., Jnl of Bio. Chem., 274:10807-10815, 1999; and Yamashita et al., Jnl. of Bio. Chem., 273:15479-15486, 1998.
WO 97/12033, filed on Sep. 27, 1996, by Emory University, listing C. Hagedorn and A. Reinoldus as inventors, which claims priority to U.S. Provisional Patent Application Ser. No. 60/004,383, filed on September 1995, described an HCV polymerase assay that can be used to evaluate the activity of the of the compounds described herein. Another HCV polymerase assay has been reported by Bartholomeusz, et al., Hepatitis C Virus (HCV) RNA polymerase assay using cloned HCV non-structural proteins; Antiviral Therapy 1996:1 (Supp 4) 18-24.

[2] = tested on: HCV replicon I389luc-ubi-neo/NS3-3′/ET in ET (Huh-lucubineo-ET) cells; assay: Replicon assay (Biological Example 2), luciferase readout; format: cell-based; conditions: Hepatitis C virus
Experimental: A cell line, ET (Huh-lucubineo-ET) was used for screening of compounds for inhibiting HCV RNA dependent RNA polymerase. The ET cell line was stably transfected with RNA transcripts harboring a I389luc-ubi-neo/NS3-3′/ET; replicon with firefly luciferase-ubiquitin-neomycin phosphotransferase fusion protein and EMCV-IRES driven NS3-5B polyprotein containing the cell culture adaptive mutations (E1202G; T12801; K1846T) (Krieger at al, 2001 and unpublished). The ET cells were grown in DMEM (Dulbeco's Modified Eagle's Medium), supplemented with 10% fetal calf serum, 2 mM Glutamine, Penicillin (100 IU/mL)/Streptomycin (100 μg/mL), 1× nonessential amino acids, and 250 μg/mL G418 (“Geneticin”). Reagents were all available through Life Technologies (Bethesda, Md.). The cells were plated at 0.5-1.0×10^4 cells/well in the 96 well plates and incubated for 24 hrs before adding test compound. The compounds were added to the cells to achieve a final concentration of 0.1 nM to 50 μM and a final DMSO (dimethylsulfoxide) concentration of 0.5%. Luciferase activity was measured 48 hours later by adding a lysis buffer and the substrate (Catalog number Glo-lysis buffer E2661 and Bright-Glo luciferase system E2620 Promega, Madison, Wis.). Cells should not be too confluent during the assay. Percent inhibition of replication data was plotted relative to no compound control. To determine the EC50 (effective concentration at which 50% of the maximum inhibition was observed), a 10 point, 3-fold serial dilution for each compound was used, which spans a concentration range of […]. EC50 values were calculated by fitting % inhibition at each concentration to the following equation: % inhibition=100%/[(EC50/[I])^b+1] where b was Hill's coefficient.
In other aspects the EC50 was equal to or less than 10 μM. In still other aspects the EC50 was equal to or less than 1 μM.

[3] = ET cells, luciferase activity 48 hours after compound

SMILES | IC50 [1] [nM] | IC50 ([2]; between 100 nM and 5.0 uM) [nM] | IC50 [2, 3] [nM]
Cn1ccc(S(=O)(=O)N2CC(=O)N(c3cc(-c4ccccc4)sc3C(=O)O)C(C3CCCCC3)C2)n1 (stereo not shown) [Compound 62, 3-[2-Cyclohexyl-4-(1-methyl-1H-pyrazole-3-sulfonyl)-6-oxo-piperazin-1-yl]-5-phenyl-thiophene-2-carboxylic acid] | 11 | 100 to 5000 | 
O=C(O)c1ccc(S(=O)(=O)N2CC(=O)N(c3cc(-c4ccccc4)sc3C(=O)O)C(C3CCCCC3)C2)cc1 (stereo not shown) [Compound 30, 3-[4-(4-Carboxy-benzenesulfonyl)-2-cyclohexyl-6-oxo-piperazin-1-yl]-5-phenyl-thiophene-2-carboxylic acid] | 3 |  | ≥ 5000
Cc1ccc(-c2cc(N3C(=O)CN(S(=O)(=O)c4ccc(N5CCOCC5)nc4)C[C@H]3C3CCCCC3)c(C(=O)O)s2)cc1 [Compound 187, 3-[(R)-2-Cyclohexyl-4-(6-morpholin-4-yl-pyridine-3-sulfonyl)-6-oxo-piperazin-1-yl]-5-p-tolyl-thiophene-2-carboxylic acid] | 1 |  | ≤ 100
O=C(O)c1sc(-c2ccccc2)cc1N1C(=O)CN(S(=O)(=O)c2ccc(-c3ccccc3)nc2)C[C@H]1C1CCCCC1 [Compound 178, 3-[(R)-2-Cyclohexyl-6-oxo-4-(6-phenyl-pyridine-3-sulfonyl)-piperazin-1-yl]-5-phenyl-thiophene-2-carboxylic acid] | 1 | 100 to 5000 | 
CC(C)(C)C#Cc1cc(N2C(=O)C(CCCO)OC[C@H]2C2CCCCC2)c(C(=O)O)s1 (stereo partly drawn) [Compound 299, 3-[(R)-5-Cyclohexyl-2-(3-hydroxy-propyl)-3-oxo-morpholin-4-yl]-5-(3,3-dimethyl-but-1-ynyl)-thiophene-2-carboxylic acid] | 5 |  | ≤ 100
O=C(O)c1sc(-c2ccc(F)cc2)cc1N1C(=O)CN(S(=O)(=O)c2ccc(N3CC4CCC(C3)O4)nc2)C[C@H]1C1CCCCC1 [Compound 196, 3-{(R)-2-Cyclohexyl-4-[6-(8-oxa-3-aza-bicyclo[3.2.1]oct-3-yl)-pyridine-3-sulfonyl]-6-oxo-piperazin-1-yl}-5-(4-fluoro-phenyl)-thiophene-2-carboxylic acid] | 1 |  | ≤ 100
N#Cc1cccc(S(=O)(=O)N2CC(=O)N(c3cc(-c4ccccc4)sc3C(=O)O)[C@H](C3CCCCC3)C2)c1 [Compound 97, 3-[(R)-4-(3-Cyano-benzenesulfonyl)-2-cyclohexyl-6-oxo-piperazin-1-yl]-5-phenyl-thiophene-2-carboxylic acid] | 27 | 100 to 5000 | 
C[C@@H]1C[C@@H](O)CN1c1ccc(S(=O)(=O)N2CC(=O)N(c3cc(-c4ccccc4)sc3C(=O)O)C(C3CCCCC3)C2)cn1 (stereo partly drawn) [Compound 122, 3-{2-Cyclohexyl-4-[6-((2R,4R)-4-hydroxy-2-methyl-pyrrolidin-1-yl)-pyridine-3-sulfonyl]-6-oxo-piperazin-1-yl}-5-phenyl-thiophene-2-carboxylic acid] | 2 |  | ≤ 100
CC(C)(C)OC(=O)N[C@H]1CCCN(c2ccc(S(=O)(=O)N3CC(=O)N(c4cc(-c5ccccc5)sc4C(=O)O)[C@H](C4CCCCC4)C3)cn2)C1 [Compound 159, 3-[(R)-4-((S)-3-tert-Butoxycarbonyl-amino-3,4,5,6-tetrahydro-2H-[1,2′]bipyridinyl-5′-sulfonyl)-2-cyclohexyl-6-oxo-piperazin-1-yl]-5-phenyl-thiophene-2-carboxylic acid] | 3 | 100 to 5000 | 
COCCNCC1OC[C@@H](C2CCCCC2)N(c2cc(C#CC(C)(C)C)sc2C(=O)O)C1=O (stereo partly drawn) [Compound 307, 3-{(R)-5-Cyclohexyl-2-[(2-methoxy-ethylamino)-methyl]-3-oxo-morpholin-4-yl}-5-(3,3-dimethyl-but-1-ynyl)-thiophene-2-carboxylic acid] | 6 |  | ≤ 100
COc1ccc(S(=O)(=O)N2CC(=O)N(c3cc(C#CC(C)(C)C)sc3C(=O)O)[C@H](C3CCCCC3)C2)cc1OC [Compound 277, 3-[(R)-2-Cyclohexyl-4-(3,4-dimethoxy-benzenesulfonyl)-6-oxo-piperazin-1-yl]-5-(3,3-dimethyl-but-1-ynyl)-thiophene-2-carboxylic acid] | 2 |  | ≤ 100
CCC1CCCN1c1ccc(S(=O)(=O)N2CC(=O)N(c3cc(-c4ccccc4)sc3C(=O)O)[C@H](C3CCCCC3)C2)cn1 (stereo partly drawn) [Compound 154, 3-{(R)-2-Cyclohexyl-4-[6-(2-ethyl-pyrrolidin-1-yl)-pyridine-3-sulfonyl]-6-oxo-piperazin-1-yl}-5-phenyl-thiophene-2-carboxylic acid] | 3 |  | ≤ 100
Cc1oc(C)c(S(=O)(=O)N2CC(=O)N(c3cc(-c4ccccc4)sc3C(=O)O)C(C3CCCCC3)C2)c1C(=O)O (stereo not shown) [Compound 33, 4-[4-(2-Carboxy-5-phenyl-thiophen-3-yl)-3-cyclohexyl-5-oxo-piperazine-1-sulfonyl]-2,5-dimethyl-furan-3-carboxylic acid] | 38 |  | ≥ 5000
C[C@@H]1CCCN1c1ccc(S(=O)(=O)N2CC(=O)N(c3cc(-c4ccccc4)sc3C(=O)O)[C@H](C3CCCCC3)C2)cn1 [Compound 130, 3-{(R)-2-Cyclohexyl-4-[6-((R)-2-methyl-pyrrolidin-1-yl)-pyridine-3-sulfonyl]-6-oxo-piperazin-1-yl}-5-phenyl-thiophene-2-carboxylic acid] | 1 |  | ≤ 100
O=C(O)c1sc(-c2ccccc2)cc1N1C(=O)CN(S(=O)(=O)Cc2ccccc2)CC1C1CCCCC1 (stereo not shown) [Compound 27, 3-(2-Cyclohexyl-6-oxo-4-phenylmethanesulfonyl-piperazin-1-yl)-5-phenyl-thiophene-2-carboxylic acid] | 22 | 100 to 5000 | 
O=C(O)c1sc(-c2ccccc2)cc1N1C(=O)CN(S(=O)(=O)c2ccc(N3CC[C@@H](O)C3)nc2)CC1C1CCCCC1 (stereo partly drawn) [Compound 123, 3-{2-Cyclohexyl-4-[6-((R)-3-hydroxy-pyrrolidin-1-yl)-pyridine-3-sulfonyl]-6-oxo-piperazin-1-yl}-5-phenyl-thiophene-2-carboxylic acid] | 2 |  | ≤ 100
O=C(O)c1sc(-c2ccc(F)cc2)cc1N1C(=O)CCCC1C1CCCCC1 (stereo not shown) [Compound 70, 3-(2-Cyclohexyl-6-oxo-piperidin-1-yl)-5-(4-fluoro-phenyl)-thiophene-2-carboxylic acid] | 67 | 100 to 5000 | 
COC[C@@H]1CCCN1c1ccc(S(=O)(=O)N2CC(=O)N(c3cc(-c4ccc(F)cc4)sc3C(=O)O)[C@H](C3CCCCC3)C2)cn1 [Compound 279, 3-{(R)-2-Cyclohexyl-4-[6-((S)-2-methoxymethyl-pyrrolidin-1-yl)-pyridine-3-sulfonyl]-6-oxo-piperazin-1-yl}-5-(4-fluoro-phenyl)-thiophene-2-carboxylic acid] | 1.1 |  | ≤ 100
CCC1(CC)CN(c2ccc(S(=O)(=O)N3CC(=O)N(c4cc(-c5ccccc5)sc4C(=O)O)[C@H](C4CCCCC4)C3)cn2)CCO1 [Compound 218, 3-{(R)-2-Cyclohexyl-4-[6-(2,2-diethyl-morpholin-4-yl)-pyridine-3-sulfonyl]-6-oxo-piperazin-1-yl}-5-phenyl-thiophene-2-carboxylic acid] | 1 |  | ≤ 100
CC1(O)CCN(c2ccc(S(=O)(=O)N3CC(=O)N(c4cc(-c5ccc(F)cc5)sc4C(=O)O)[C@H](C4CCCCC4)C3)cn2)C1 (stereo partly drawn) [Compound 288, 3-{(R)-2-Cyclohexyl-4-[6-(3-hydroxy-3-methyl-pyrrolidin-1-yl)-pyridine-3-sulfonyl]-6-oxo-piperazin-1-yl}-5-(4-fluoro-phenyl)-thiophene-2-carboxylic acid] | 2 |  | ≤ 100

— patent US9498483B2, “2,3,5-trisubstituted thiophene compounds and uses thereof” (priority 2010, dated 2016)
